Data reported in the kinase profiling compilation of Christmann-Franck et al. (2016).
Values joined by “and” are separate entries in the source; they are usually repeats but may differ in a detail not shown here. Equal values may be shown once. Each block holds one molecule with its values, some of them ahead of it.

Columns and labels:
GAK (human) = GAK (human) (UniProt O14976); test: KINOMEscan competition binding; conditions: compound 10.0 µM
FGFR4 (human) = FGFR4 (human) (UniProt P22455); test: KINOMEscan competition binding; conditions: compound 10.0 µM
EGFR (human) = EGFR (human) (UniProt P00533); test: KINOMEscan competition binding; conditions: compound 10.0 µM
ULK2 (human) = ULK2 (human) (UniProt Q8IYT8); test: KINOMEscan competition binding; conditions: compound 10.0 µM
PLK4 (human) = PLK4 (human) (UniProt O00444); test: KINOMEscan competition binding; conditions: compound 10.0 µM
IGF1R (human) = IGF1R (human) (UniProt P08069); test: KINOMEscan competition binding; conditions: compound 10.0 µM
PTK2 (human) = PTK2 (human) (UniProt Q05397); test: KINOMEscan competition binding; conditions: compound 10.0 µM
TNK1 (human) = TNK1 (human) (UniProt Q13470); test: KINOMEscan competition binding; conditions: compound 10.0 µM
INSRR (human) = INSRR (human) (UniProt P14616); test: KINOMEscan competition binding; conditions: compound 10.0 µM
[1] = system: EGFR (human), P00533 [P753S; 747-752 del]; test: KINOMEscan competition binding; conditions: compound 10.0 µM
DAPK3 (human) = DAPK3 (human) (UniProt O43293); test: KINOMEscan competition binding; conditions: compound 10.0 µM
DAPK2 (human) = DAPK2 (human) (UniProt Q9UIK4); test: KINOMEscan competition binding; conditions: compound 10.0 µM
PLK3 (human) = PLK3 (human) (UniProt Q9H4B4); test: KINOMEscan competition binding; conditions: compound 10.0 µM
RPS6KA2 KD2 (human) = RPS6KA2 KD2 (human) (UniProt Q15349); test: KINOMEscan competition binding; conditions: compound 10.0 µM
PLK1 (human) = PLK1 (human) (UniProt P53350); test: KINOMEscan competition binding; conditions: compound 10.0 µM
STK33 (human) = STK33 (human) (UniProt Q9BYT3); test: KINOMEscan competition binding; conditions: compound 10.0 µM
MKNK2 (human) = MKNK2 (human) (UniProt Q9HBH9); test: KINOMEscan competition binding; conditions: compound 10.0 µM
MYLK (human) = MYLK (human) (UniProt Q15746); test: KINOMEscan competition binding; conditions: compound 10.0 µM
SLK (human) = SLK (human) (UniProt Q9H2G2); test: KINOMEscan competition binding; conditions: compound 10.0 µM
[2] = system: EGFR (human), P00533 [L861Q]; test: KINOMEscan competition binding; conditions: compound 10.0 µM
ALK (human) = ALK (human) (UniProt Q9UM73); test: KINOMEscan competition binding; conditions: compound 10.0 µM
MET (human) = MET (human) (UniProt P08581); test: KINOMEscan competition binding; conditions: compound 10.0 µM
TTK (human) [3] = molecular target: TTK (human) (UniProt P33981); test: KINOMEscan competition binding; conditions: for kinase still bound, per cent of control: compound 10.0 µM
INSR (human) = INSR (human) (UniProt P06213); test: KINOMEscan competition binding; conditions: compound 10.0 µM
CAMKK2 (human) = CAMKK2 (human) (UniProt Q96RR4); test: KINOMEscan competition binding; conditions: compound 10.0 µM
[4] = system: EGFR (human), P00533 [G719C; 746-750 del]; test: KINOMEscan competition binding; conditions: compound 10.0 µM
FER (human) = FER (human) (UniProt P16591); test: KINOMEscan competition binding; conditions: compound 10.0 µM
[5] = system: EGFR (human), P00533 [L858R]; test: KINOMEscan competition binding; conditions: compound 10.0 µM
[6] = system: EGFR (human), P00533 [A750P; 747-749 del]; test: KINOMEscan competition binding; conditions: compound 10.0 µM
[7] = system: EGFR (human), P00533 [752-759 del]; test: KINOMEscan competition binding; conditions: compound 10.0 µM
[8] = system: EGFR (human), P00533 [G719S]; test: KINOMEscan competition binding; conditions: compound 10.0 µM
DCLK1 (human) = DCLK1 (human) (UniProt O15075); test: KINOMEscan competition binding; conditions: compound 10.0 µM
[9] = system: EGFR (human), P00533 [747-751 del / S ins]; test: KINOMEscan competition binding; conditions: compound 10.0 µM
PTK2B (human) = PTK2B (human) (UniProt Q14289); test: KINOMEscan competition binding; conditions: compound 10.0 µM
TTK (human) [10] = molecular target: TTK (human) (UniProt P33981); test: SelectScreen, TR FRET
SRPK3 (human) = SRPK3 (human) (UniProt Q9UPE1); test: KINOMEscan competition binding; conditions: compound 10.0 µM
[11] = system: FLT3 (human), P36888 [D835Y]; test: KINOMEscan competition binding; conditions: compound 10.0 µM
SIK2 (human) = SIK2 (human) (UniProt Q9H0K1); test: KINOMEscan competition binding; conditions: compound 10.0 µM
[12] = molecular target: TYK2 JH2 pseudokinase (human) (UniProt P29597); test: KINOMEscan competition binding; conditions: compound 10.0 µM
[13] = system: ABL1 (human), P00519 [F317L]; test: KINOMEscan competition binding; conditions: compound 10.0 µM
BLK (human) = BLK (human) (UniProt P51451); test: KINOMEscan competition binding; conditions: compound 10.0 µM
PDGFRB (human) = PDGFRB (human) (UniProt P09619); test: KINOMEscan competition binding; conditions: compound 10.0 µM
SIK1 (human) = SIK1 (human) (UniProt P57059); test: KINOMEscan competition binding; conditions: compound 10.0 µM
RIOK1 (human) = RIOK1 (human) (UniProt Q9BRS2); test: KINOMEscan competition binding; conditions: compound 10.0 µM
RIOK3 (human) = RIOK3 (human) (UniProt O14730); test: KINOMEscan competition binding; conditions: compound 10.0 µM
[14] = system: KIT (human), P10721 [V559D]; test: KINOMEscan competition binding; conditions: compound 10.0 µM
[15] = system: FLT3 (human), P36888 [ITD]; test: KINOMEscan competition binding; conditions: compound 10.0 µM
CHEK1 (human) = CHEK1 (human) (UniProt O14757); test: KINOMEscan competition binding; conditions: compound 10.0 µM
KIT (human) = KIT (human) (UniProt P10721); test: KINOMEscan competition binding; conditions: compound 10.0 µM
[16] = system: FLT3 (human), P36888 [D835H]; test: KINOMEscan competition binding; conditions: compound 10.0 µM
LCK (human) = LCK (human) (UniProt P06239); test: KINOMEscan competition binding; conditions: compound 10.0 µM
BMP2K (human) = BMP2K (human) (UniProt Q9NSY1); test: KINOMEscan competition binding; conditions: compound 10.0 µM
TNK2 (human) = TNK2 (human) (UniProt Q07912); test: KINOMEscan competition binding; conditions: compound 10.0 µM
[17] = system: KIT (human), P10721 [D816V]; test: KINOMEscan competition binding; conditions: compound 10.0 µM
SRPK1 (human) = SRPK1 (human) (UniProt Q96SB4); test: KINOMEscan competition binding; conditions: compound 10.0 µM
[18] = system: FLT3 (human), P36888 [N841I]; test: KINOMEscan competition binding; conditions: compound 10.0 µM
FRK (human) = FRK (human) (UniProt P42685); test: KINOMEscan competition binding; conditions: compound 10.0 µM
RPS6KA1 KD2 (human) = RPS6KA1 KD2 (human) (UniProt Q15418); test: KINOMEscan competition binding; conditions: compound 10.0 µM
CSF1R (human) = CSF1R (human) (UniProt P07333); test: KINOMEscan competition binding; conditions: compound 10.0 µM
RPS6KA6 KD2 (human) = RPS6KA6 KD2 (human) (UniProt Q9UK32); test: KINOMEscan competition binding; conditions: compound 10.0 µM
ULK1 (human) = ULK1 (human) (UniProt O75385); test: KINOMEscan competition binding; conditions: compound 10.0 µM
PIP5K1A (human) = PIP5K1A (human) (UniProt Q99755); test: KINOMEscan competition binding; conditions: compound 10.0 µM
[19] = system: ABL1 (human), P00519 [F317I]; test: KINOMEscan competition binding; conditions: compound 10.0 µM

Chain of GAK (human) (O14976 whole entry, looked up): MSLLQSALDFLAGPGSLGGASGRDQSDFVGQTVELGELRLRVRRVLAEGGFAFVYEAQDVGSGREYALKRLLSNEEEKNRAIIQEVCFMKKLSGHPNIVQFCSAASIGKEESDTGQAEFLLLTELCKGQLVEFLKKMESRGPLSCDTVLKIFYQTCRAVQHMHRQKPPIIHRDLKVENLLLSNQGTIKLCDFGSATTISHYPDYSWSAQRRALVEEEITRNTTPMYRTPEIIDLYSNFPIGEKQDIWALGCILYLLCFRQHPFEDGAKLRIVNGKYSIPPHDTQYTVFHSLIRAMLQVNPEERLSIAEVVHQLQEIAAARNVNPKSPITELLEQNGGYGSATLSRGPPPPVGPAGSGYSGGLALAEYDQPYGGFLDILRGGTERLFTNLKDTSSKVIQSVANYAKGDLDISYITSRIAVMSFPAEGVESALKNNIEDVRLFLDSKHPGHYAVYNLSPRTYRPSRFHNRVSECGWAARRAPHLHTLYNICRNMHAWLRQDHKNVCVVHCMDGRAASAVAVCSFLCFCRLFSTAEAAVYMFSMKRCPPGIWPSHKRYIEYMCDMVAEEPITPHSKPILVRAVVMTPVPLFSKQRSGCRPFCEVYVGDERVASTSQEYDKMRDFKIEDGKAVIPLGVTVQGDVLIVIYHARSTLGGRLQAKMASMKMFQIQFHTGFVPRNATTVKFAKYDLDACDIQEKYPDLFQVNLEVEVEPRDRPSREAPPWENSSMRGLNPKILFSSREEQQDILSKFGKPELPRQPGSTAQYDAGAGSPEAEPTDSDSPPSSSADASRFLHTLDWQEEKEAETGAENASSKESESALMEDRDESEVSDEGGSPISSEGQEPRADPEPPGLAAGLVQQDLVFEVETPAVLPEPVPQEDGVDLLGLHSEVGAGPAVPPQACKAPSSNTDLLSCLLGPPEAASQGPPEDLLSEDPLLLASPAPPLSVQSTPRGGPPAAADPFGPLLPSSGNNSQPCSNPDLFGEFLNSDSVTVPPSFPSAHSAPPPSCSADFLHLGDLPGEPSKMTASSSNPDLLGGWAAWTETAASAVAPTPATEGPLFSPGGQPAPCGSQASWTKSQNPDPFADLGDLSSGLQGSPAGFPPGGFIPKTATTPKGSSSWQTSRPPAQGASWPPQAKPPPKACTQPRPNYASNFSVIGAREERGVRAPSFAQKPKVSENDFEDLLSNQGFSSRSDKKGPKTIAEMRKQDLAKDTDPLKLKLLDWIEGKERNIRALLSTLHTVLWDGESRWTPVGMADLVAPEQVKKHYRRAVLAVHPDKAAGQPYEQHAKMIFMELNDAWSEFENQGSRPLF
Chain of TTK (human) (P33981 whole entry, looked up): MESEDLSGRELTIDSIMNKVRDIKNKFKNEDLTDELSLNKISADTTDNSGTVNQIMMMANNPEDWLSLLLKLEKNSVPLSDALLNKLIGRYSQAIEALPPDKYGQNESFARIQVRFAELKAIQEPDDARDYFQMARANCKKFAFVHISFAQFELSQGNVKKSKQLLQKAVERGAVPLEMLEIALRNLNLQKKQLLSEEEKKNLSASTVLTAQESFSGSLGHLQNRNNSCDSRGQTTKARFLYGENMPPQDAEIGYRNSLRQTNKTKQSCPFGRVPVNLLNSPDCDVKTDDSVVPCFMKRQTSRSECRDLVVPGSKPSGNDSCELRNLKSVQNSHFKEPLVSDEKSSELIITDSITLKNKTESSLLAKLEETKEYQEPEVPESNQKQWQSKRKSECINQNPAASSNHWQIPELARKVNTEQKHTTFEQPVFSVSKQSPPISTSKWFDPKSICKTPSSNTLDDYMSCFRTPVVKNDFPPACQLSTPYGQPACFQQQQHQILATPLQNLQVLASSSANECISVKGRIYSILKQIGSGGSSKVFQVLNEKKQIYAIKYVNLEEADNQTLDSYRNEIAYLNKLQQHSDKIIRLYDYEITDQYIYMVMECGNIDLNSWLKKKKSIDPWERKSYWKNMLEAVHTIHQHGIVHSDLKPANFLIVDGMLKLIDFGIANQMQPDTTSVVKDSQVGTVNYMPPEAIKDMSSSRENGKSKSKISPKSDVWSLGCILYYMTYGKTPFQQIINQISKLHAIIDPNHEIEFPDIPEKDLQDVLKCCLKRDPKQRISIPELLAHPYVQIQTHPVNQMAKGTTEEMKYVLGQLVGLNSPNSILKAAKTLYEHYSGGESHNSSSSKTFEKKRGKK
Chain of PLK3 (human) (Q9H4B4 whole entry, looked up): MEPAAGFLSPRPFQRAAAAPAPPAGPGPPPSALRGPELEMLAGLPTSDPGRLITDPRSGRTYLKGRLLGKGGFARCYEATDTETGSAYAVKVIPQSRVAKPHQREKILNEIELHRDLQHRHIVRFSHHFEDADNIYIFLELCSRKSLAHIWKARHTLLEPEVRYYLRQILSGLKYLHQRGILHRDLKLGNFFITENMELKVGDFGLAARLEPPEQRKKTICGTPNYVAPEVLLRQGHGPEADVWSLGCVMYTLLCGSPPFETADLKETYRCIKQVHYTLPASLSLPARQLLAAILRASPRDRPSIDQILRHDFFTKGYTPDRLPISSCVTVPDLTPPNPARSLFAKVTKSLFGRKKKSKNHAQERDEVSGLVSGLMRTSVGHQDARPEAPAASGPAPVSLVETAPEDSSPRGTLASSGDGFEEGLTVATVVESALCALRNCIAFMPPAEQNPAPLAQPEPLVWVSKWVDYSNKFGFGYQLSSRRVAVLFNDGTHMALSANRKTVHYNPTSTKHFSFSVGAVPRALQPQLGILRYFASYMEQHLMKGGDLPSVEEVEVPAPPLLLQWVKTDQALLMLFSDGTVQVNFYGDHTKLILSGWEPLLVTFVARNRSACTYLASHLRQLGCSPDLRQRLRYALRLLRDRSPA
Chain of PTK2B (human) (Q14289 whole entry, looked up): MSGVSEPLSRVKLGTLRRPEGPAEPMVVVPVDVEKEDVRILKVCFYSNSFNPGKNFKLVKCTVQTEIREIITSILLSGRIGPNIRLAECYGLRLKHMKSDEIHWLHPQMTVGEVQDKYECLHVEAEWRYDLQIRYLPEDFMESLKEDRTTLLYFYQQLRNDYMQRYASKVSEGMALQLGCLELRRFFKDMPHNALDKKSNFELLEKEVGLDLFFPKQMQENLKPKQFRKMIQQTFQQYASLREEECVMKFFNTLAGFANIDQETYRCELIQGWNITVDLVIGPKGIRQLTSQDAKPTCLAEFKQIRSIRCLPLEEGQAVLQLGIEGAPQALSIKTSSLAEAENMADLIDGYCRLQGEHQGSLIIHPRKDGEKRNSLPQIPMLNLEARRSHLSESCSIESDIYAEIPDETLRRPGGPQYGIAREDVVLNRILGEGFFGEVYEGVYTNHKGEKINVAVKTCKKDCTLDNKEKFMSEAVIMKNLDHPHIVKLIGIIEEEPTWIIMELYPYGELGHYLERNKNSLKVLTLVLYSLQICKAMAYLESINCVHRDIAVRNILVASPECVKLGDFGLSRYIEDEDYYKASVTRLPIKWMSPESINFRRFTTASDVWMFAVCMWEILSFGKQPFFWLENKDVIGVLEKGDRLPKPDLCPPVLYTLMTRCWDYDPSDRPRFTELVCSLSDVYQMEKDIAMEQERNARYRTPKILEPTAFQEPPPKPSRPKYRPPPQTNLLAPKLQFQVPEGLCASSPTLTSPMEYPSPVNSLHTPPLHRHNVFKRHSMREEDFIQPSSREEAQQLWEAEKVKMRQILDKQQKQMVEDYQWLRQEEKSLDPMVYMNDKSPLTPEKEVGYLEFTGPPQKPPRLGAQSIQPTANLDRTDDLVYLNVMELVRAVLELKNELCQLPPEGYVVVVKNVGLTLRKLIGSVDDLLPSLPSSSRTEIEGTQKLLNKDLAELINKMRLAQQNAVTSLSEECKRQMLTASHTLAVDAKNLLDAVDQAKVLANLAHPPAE
Chain of PLK1 (human) (P53350 whole entry, looked up): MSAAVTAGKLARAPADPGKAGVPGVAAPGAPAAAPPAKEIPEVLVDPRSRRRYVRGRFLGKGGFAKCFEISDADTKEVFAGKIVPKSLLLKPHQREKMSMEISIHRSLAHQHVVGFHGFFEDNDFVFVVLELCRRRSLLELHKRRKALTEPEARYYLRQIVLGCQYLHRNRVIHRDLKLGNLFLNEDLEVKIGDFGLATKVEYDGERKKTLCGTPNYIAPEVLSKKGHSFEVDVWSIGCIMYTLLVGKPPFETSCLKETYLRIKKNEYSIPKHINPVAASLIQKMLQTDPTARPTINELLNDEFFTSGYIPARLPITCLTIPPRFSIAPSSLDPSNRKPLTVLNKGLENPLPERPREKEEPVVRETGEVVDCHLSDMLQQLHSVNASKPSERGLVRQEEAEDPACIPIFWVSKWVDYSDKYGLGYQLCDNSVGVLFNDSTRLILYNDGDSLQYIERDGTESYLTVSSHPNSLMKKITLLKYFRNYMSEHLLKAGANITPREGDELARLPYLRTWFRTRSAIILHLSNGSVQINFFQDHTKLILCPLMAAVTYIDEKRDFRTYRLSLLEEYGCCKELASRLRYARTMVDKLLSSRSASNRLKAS
Chain of RIOK1 (human) (Q9BRS2 whole entry, looked up): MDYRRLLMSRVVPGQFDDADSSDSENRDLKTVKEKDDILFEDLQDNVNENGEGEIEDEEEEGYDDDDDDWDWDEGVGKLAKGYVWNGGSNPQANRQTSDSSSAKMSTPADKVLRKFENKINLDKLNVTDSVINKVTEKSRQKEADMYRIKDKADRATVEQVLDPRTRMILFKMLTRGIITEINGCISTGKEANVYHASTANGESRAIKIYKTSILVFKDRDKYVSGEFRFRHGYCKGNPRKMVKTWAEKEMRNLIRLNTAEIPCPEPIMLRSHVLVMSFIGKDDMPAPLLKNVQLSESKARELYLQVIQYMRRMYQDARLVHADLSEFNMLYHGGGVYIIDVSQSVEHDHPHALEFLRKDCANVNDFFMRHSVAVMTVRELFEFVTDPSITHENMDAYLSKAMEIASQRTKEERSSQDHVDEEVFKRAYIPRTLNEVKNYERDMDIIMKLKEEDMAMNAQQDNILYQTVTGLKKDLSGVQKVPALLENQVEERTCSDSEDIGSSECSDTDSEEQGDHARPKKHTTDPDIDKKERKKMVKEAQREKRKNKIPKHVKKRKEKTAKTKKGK

kinase still bound, per cent of control (GAK (human)): 1.2% | kinase still bound, per cent of control (FGFR4 (human)): 34% | kinase still bound, per cent of control (EGFR (human)): 17% and 29% | kinase still bound, per cent of control (ULK2 (human)): 26% | kinase still bound, per cent of control (PLK4 (human)): 8.2% | kinase still bound, per cent of control (IGF1R (human)): 14% | kinase still bound, per cent of control (PTK2 (human)): 6.2% | kinase still bound, per cent of control (TNK1 (human)): 11% | kinase still bound, per cent of control (INSRR (human)): 30% | kinase still bound, per cent of control [1]: 6.6% | kinase still bound, per cent of control (DAPK3 (human)): 34% | kinase still bound, per cent of control (DAPK2 (human)): 29% | kinase still bound, per cent of control (PLK3 (human)): 1.8% | kinase still bound, per cent of control (RPS6KA2 KD2 (human)): 30% | kinase still bound, per cent of control (PLK1 (human)): 0.2% | kinase still bound, per cent of control (STK33 (human)): 12% | kinase still bound, per cent of control (MKNK2 (human)): 13% | kinase still bound, per cent of control (MYLK (human)): 31% | kinase still bound, per cent of control (SLK (human)): 31% | kinase still bound, per cent of control [2]: 6.6% | kinase still bound, per cent of control (ALK (human)): 22% | kinase still bound, per cent of control (MET (human)): 9.1% | Kd (TTK (human) [3]): 0.0205 µM | kinase still bound, per cent of control (TTK (human) [3]): 3.8% | kinase still bound, per cent of control (INSR (human)): 28% | kinase still bound, per cent of control (CAMKK2 (human)): 20% | kinase still bound, per cent of control [4]: 10% | kinase still bound, per cent of control (FER (human)): 18% | kinase still bound, per cent of control [5]: 17% | kinase still bound, per cent of control [6]: 4% | kinase still bound, per cent of control [7]: 10% | kinase still bound, per cent of control [8]: 14% | kinase still bound, per cent of control (DCLK1 (human)): 20% | kinase still bound, per cent of control [9]: 6.2% | kinase still bound, per cent of control (PTK2B (human)): 3.1% | IC50 (TTK (human) [10]): 0.254 µM
SMILES: COc1cc(N2CCC(C)(O)CC2)ccc1Nc1ncc2c(n1)N(C1CCCC1)CCC(=O)N2C

kinase still bound, per cent of control (GAK (human)): 2% | kinase still bound, per cent of control (EGFR (human)): 24% | kinase still bound, per cent of control (PTK2 (human)): 19% | kinase still bound, per cent of control [1]: 15% | kinase still bound, per cent of control (PLK3 (human)): 21% | kinase still bound, per cent of control (PLK1 (human)): 1.2% | kinase still bound, per cent of control [2]: 25% | kinase still bound, per cent of control (TTK (human) [3]): 5% | kinase still bound, per cent of control [4]: 30% | kinase still bound, per cent of control [5]: 30% | kinase still bound, per cent of control [6]: 21% | kinase still bound, per cent of control [7]: 21% | kinase still bound, per cent of control [8]: 23% | kinase still bound, per cent of control [9]: 12% | kinase still bound, per cent of control (PTK2B (human)): 22%
SMILES: COc1cc(N2CCC(O)CC2)ccc1Nc1ncc2c(n1)N(c1ccccc1)CCC(=O)N2C

kinase still bound, per cent of control (SRPK3 (human)): 30% | kinase still bound, per cent of control (GAK (human)): 2% | kinase still bound, per cent of control [11]: 8.6% | kinase still bound, per cent of control (SIK2 (human)): 26% | kinase still bound, per cent of control [12]: 28% | kinase still bound, per cent of control [13]: 16% | kinase still bound, per cent of control (BLK (human)): 21% | kinase still bound, per cent of control (PDGFRB (human)): 1.1% | kinase still bound, per cent of control (SIK1 (human)): 12% | kinase still bound, per cent of control (RIOK1 (human)): 27% | kinase still bound, per cent of control (RIOK3 (human)): 23% | kinase still bound, per cent of control [14]: 4.6% | kinase still bound, per cent of control [1]: 17% | kinase still bound, per cent of control [15]: 31% | kinase still bound, per cent of control (CHEK1 (human)): 27% | kinase still bound, per cent of control (KIT (human)): 5.7% | kinase still bound, per cent of control [16]: 18% | kinase still bound, per cent of control (LCK (human)): 25% | kinase still bound, per cent of control (SLK (human)): 29% | kinase still bound, per cent of control (BMP2K (human)): 15% | kinase still bound, per cent of control (TNK2 (human)): 5% | kinase still bound, per cent of control [2]: 21% | kinase still bound, per cent of control [17]: 2.4% | kinase still bound, per cent of control (SRPK1 (human)): 29% | kinase still bound, per cent of control [18]: 23% | kinase still bound, per cent of control (FRK (human)): 2.8% | kinase still bound, per cent of control (RPS6KA1 KD2 (human)): 33% | kinase still bound, per cent of control [4]: 12% | kinase still bound, per cent of control (CSF1R (human)): 16% | kinase still bound, per cent of control (RPS6KA6 KD2 (human)): 18% | kinase still bound, per cent of control [5]: 31% | kinase still bound, per cent of control [6]: 5.2% | kinase still bound, per cent of control [7]: 14% | kinase still bound, per cent of control (ULK1 (human)): 24% | kinase still bound, per cent of control [9]: 11% | kinase still bound, per cent of control (PIP5K1A (human)): 34% | kinase still bound, per cent of control [19]: 17%
SMILES: COc1cc(N2CCN(C)CC2)ccc1Nc1ncc2c(n1)N(c1ccccc1)CCC(=O)N2
